The test system of one assay is KMS.12.BM cells. The assay can be described thus: KMS.12.BM cell viability assay (Cell Titer-GLO, ATP quantitation). It counts as cell-based. The settings on record: Homo sapiens, 72 h, 3 days, concentration required for 50% cell death, read-out: KMS cellular IC50. The procedure: KMS.12.BM cell line (human myeloma) was purchased from JCRB (Osaka, Japan) and maintained in RPMI with 10% FBS culture medium. To measure the cytotoxic activity of the compounds through ATP quantitation, the KMS.12.BM cells are plated in the RPMI culture medium at 5000 cells/well/per 100 μL into a 96-well polystyrene clear black tissue culture plate (Greiner-bio-one through VWR, NJ), in the presence or absence of a concentration range of test compounds. After 3 days, […] Cell Titer-GLO Luminescent (Promega, Madison, Wis.) cell culture agent is added to each well for 10 minutes at room temperature to stabilize the luminescent signal. This determines the number of viable cells in culture based on quantitation of the ATP present, which signals the presence of metabolically active cells. Luminescence is measured with the Top Count 384 (Packard Bioscience through Perkin Elmer, Boston, Mass.). Compound inhibition is determined relative to cells cultured with no drug and the IC50 is reported as the compound concentration required for 50% cell death. IC50 data for the Examples is presented in Table 9 as determined by Assay B1.
For orientation: ATP-based viability assays read luminescence as a measure of living cells.

Another assay concerns the target BRD4-BD2 (Homo sapiens (Human), UniProt O60885). Kind of assay: BRD4 AlphaScreen assay, BRD4-BD2. The settings on record: H4Ac4 peptide, 75 min, room temperature, read-out: BRD4 BD-2 enzyme IC50. In kind it is binding. The procedure: (§1) BRD4-BD1 and BRD4-BD2 assays were conducted in white 384-well polystyrene plate in a final volume of 20 μL for BD1 and 40 μL for BD2. Inhibitors were first serially diluted in DMSO and added to the plate wells before the addition of other reaction components. […] After plate sealing, the plate was incubated in the dark at room temperature for 75 min. before reading on a PHERAstar FS plate reader (BMG Labtech). IC50 determination was performed by fitting the curve of percent control activity versus the log of the inhibitor concentration using the GraphPad Prism 5.0 software.

The target of another assay is BRD4-BD1 (Homo sapiens (Human), UniProt O60885). The assay can be described thus: BRD4 AlphaScreen assay, BRD4-BD1. In kind it is binding. The settings on record: H4Ac4 peptide, 75 min, room temperature, read-out: BRD4 BD-1 enzyme IC50. The procedure: as §1
In general terms: Bead proximity is the source of the signal in Alpha formats.

pIC50: −log10 of the molar value. Structures can show the parent of a compound that is named as a salt. Some results are limits rather than exact numbers.

As usually defined, the pIC50 is the negative decadic logarithm of the IC50, by convention in mol/L. Regarding `CCn1cc(-c2ccc3c(ncn3C)c2Oc2ccc(F)cc2F)c2cc[nH]c2c1=O` [Example 83, 4-[4-(2,4-Difluorophenoxy)-1-methyl-1H-benzimidazol-5-yl]-6-ethyl-1,6-dihydro-7H-pyrrolo[2,3-c]pyridin-7-one], the pIC50 is no less than 6.00 in the assay on KMS.12.BM cells, greater than 7.00 at BRD4-BD2 and 6.00 to 7.00 at BRD4-BD1.
Consider `C[C@@H]1CN(CCn2c(NCC3CC3)nc3c(Oc4ccccc4)c(-c4cn(C)c(=O)c5[nH]ccc45)ccc32)C[C@H](C)O1` [Example 72, 4-(2-[(Cyclopropylmethyl)amino]-1-{2-[(2R,6S)-2,6-dimethylmorpholin-4-yl]ethyl}-4-phenoxy-1H-benzimidazol-5-yl)-6-methyl-1,6-dihydro-7H-pyrrolo[2,3-c]pyridin-7-one trifluoroacetate], for which the figures for the pIC50 in the assay with KMS.12.BM cells, at BRD4-BD2 and on BRD4-BD1 were 5.00 to 6.00, greater than 7.00 and 6.00 to 7.00, respectively.
Consider `Cn1cnc2c(Oc3ccc(F)cc3F)c(-c3cn(Cc4ccccc4)c(=O)c4[nH]ccc34)ccc21` [Example 84, 6-Benzyl-4-[4-(2,4-difluorophenoxy)-1-methyl-1H-benzimidazol-5-yl]-1,6-dihydro-7H-pyrrolo[2,3-c]pyridin-7-one trifluoroacetate], for which the pIC50 at BRD4-BD2 is 6.00 to 7.00; at BRD4-BD1 it was 5.00 to 6.00.
On the same counts, the results for `Cn1cnc2c(Oc3ccc(F)cc3F)c(-c3c[nH]c(=O)c4[nH]ccc34)ccc21` [Example 82, 4-[4-(2,4-Difluorophenoxy)-1-methyl-1H-benzimidazol-5-yl]-1,6-dihydro-7H-pyrrolo[2,3-c]pyridin-7-one] are 6.00 to 7.00 and 6.00 to 7.00.
On to `Cn1cc(-c2ccc3c(c2OCC2CCC2)n(CCN2CCN(S(C)(=O)=O)CC2)c(=O)n3C)c2cc[nH]c2c1=O` [Example 67, 4-(Cyclobutylmethoxy)-1-methyl-5-(6-methyl-7-oxo-6,7-dihydro-1H-pyrrolo[2,3-c]pyridin-4-yl)-3-{2-[4-(methylsulfonyl)piperazin-1-yl]ethyl}-1,3-dihydro-2H-benzimidazol-2-one], for which the results for the pIC50 in the assay on KMS.12.BM cells, on BRD4-BD2 and at BRD4-BD1 were no less than 6.00, greater than 7.00 and greater than 7.00, respectively.
For the compound `CNC(=O)Cn1cnc2ccc(-c3cn(C)c(=O)c4[nH]ccc34)c(Oc3ccc(F)cc3F)c21` [Example 35, 2-[7-(2,4-Difluorophenoxy)-6-(6-methyl-7-oxo-6,7-dihydro-1H-pyrrolo[2,3-c]pyridin-4-yl)-1H-benzimidazol-1-yl]-N-methylacetamide], the negative logarithm of the IC50 (pIC50) was no less than 6.00 in the assay with KMS.12.BM cells, greater than 7.00 at BRD4-BD2 and greater than 7.00 at BRD4-BD1.
Regarding `Cn1cc(-c2cc(CNCCN3CCOCC3)c3[nH]c(=O)[nH]c3c2Oc2ccc(F)cc2F)c2cc[nH]c2c1=O` [Example 79, 4-(2,4-Difluorophenoxy)-5-(6-methyl-7-oxo-6,7-dihydro-1H-pyrrolo[2,3-c]pyridin-4-yl)-7-{[(2-morpholin-4-ylethyl)amino]methyl}-1,3-dihydro-2H-benzimidazol-2-one], the figures for the pIC50 in the assay with KMS.12.BM cells, at BRD4-BD2 and at BRD4-BD1 were 5.00 to 6.00, greater than 7.00 and 6.00 to 7.00, respectively.
Taken in the same sequence, the figures for `Cn1cc(-c2ccc3c(c2Oc2ccccc2)NC(=O)C(C)(C)O3)c2cc[nH]c2c1=O` [Example 95, 2,2-Dimethyl-6-(6-methyl-7-oxo-6,7-dihydro-1H-pyrrolo[2,3-c]pyridin-4-yl)-5-phenoxy-2H-1,4-benzoxazin-3(4H)-one] were no less than 6.00, greater than 7.00 and greater than 7.00.
On the same counts, the results for `Cn1cc(-c2cc(CNCC3CC3)c3[nH]c(=O)[nH]c3c2Oc2ccc(F)cc2F)c2cc[nH]c2c1=O` [Example 81, 7-{[(Cyclopropylmethyl)amino]methyl}-4-(2,4-difluorophenoxy)-5-(6-methyl-7-oxo-6,7-dihydro-1H-pyrrolo[2,3-c]pyridin-4-yl)-1,3-dihydro-2H-benzimidazol-2-one] are no less than 6.00, greater than 7.00 and 6.00 to 7.00.
Taken in the same sequence, the figures for `Cn1cc(-c2cc(CNCc3ccccc3)c3[nH]c(=O)[nH]c3c2Oc2ccc(F)cc2F)c2cc[nH]c2c1=O` [Example 80, 7-[(Benzylamino)methyl]-4-(2,4-difluorophenoxy)-5-(6-methyl-7-oxo-6,7-dihydro-1H-pyrrolo[2,3-c]pyridin-4-yl)-1,3-dihydro-2H-benzimidazol-2-one] were no less than 6.00, greater than 7.00 and greater than 7.00.
Turning to `C[C@@H]1CN(CCn2c(NCc3ccccc3)nc3c(Oc4ccccc4)c(-c4cn(C)c(=O)c5[nH]ccc45)ccc32)C[C@H](C)O1` [Example 71, 4-(2-(Benzylamino)-1-{2-[(2R,6S)-2,6-dimethylmorpholin-4-yl]ethyl}-4-phenoxy-1H-benzimidazol-5-yl)-6-methyl-1,6-dihydro-7H-pyrrolo[2,3-c]pyridin-7-one trifluoroacetate], the pIC50 on BRD4-BD2 and on BRD4-BD1 was 5.00 to 6.00 in each case.
Take `Cn1cc(-c2ccc3c(c2Oc2ccccc2)N(Cc2ccccc2)C(=O)CO3)c2cc[nH]c2c1=O` [Example 101, 4-Benzyl-6-(6-methyl-7-oxo-6,7-dihydro-1H-pyrrolo[2,3-c]pyridin-4-yl)-5-phenoxy-2H-1,4-benzoxazin-3(4H)-one]: the pIC50 at BRD4-BD2 and at BRD4-BD1 was 6.00 to 7.00 in each case.
On to `COc1c(-c2cn(C)c(=O)c3[nH]ccc23)ccc2c1n(CCN1CCOCC1)c(=O)n2C` [Example 50, 4-Methoxy-1-methyl-5-(6-methyl-7-oxo-6,7-dihydro-1H-pyrrolo[2,3-c]pyridin-4-yl)-3-(2-morpholin-4-ylethyl)-1,3-dihydro-2H-benzimidazol-2-one], for which the negative-log IC50 (pIC50) on BRD4-BD2 is greater than 7.00; on BRD4-BD1 it was 6.00 to 7.00.
Taken in the same sequence, the figures for `CCS(=O)(=O)c1c(-c2cn(C)c(=O)c3[nH]ccc23)ccc2c1[nH]c(=O)n2C` [Example 99, 4-(Ethylsulfonyl)-1-methyl-5-(6-methyl-7-oxo-6,7-dihydro-1H-pyrrolo[2,3-c]pyridin-4-yl)-1,3-dihydro-2H-benzimidazol-2-one] were 6.00 to 7.00 and 5.00 to 6.00.
On the same counts, the results for `Cn1cc(-c2ccc3c(c2Oc2ccccc2)N(CCN2CCOCC2)C(=O)CO3)c2cc[nH]c2c1=O` [Example 102, 6-(6-Methyl-7-oxo-6,7-dihydro-1H-pyrrolo[2,3-c]pyridin-4-yl)-4-(2-morpholin-4-ylethyl)-5-phenoxy-2H-1,4-benzoxazin-3(4H)-one trifluoroacetate] are greater than 7.00 and 6.00 to 7.00.
On the same counts, the results for `Cn1cnc2c(Oc3ccc(F)cc3F)c(-c3cn(CC#N)c(=O)c4[nH]ccc34)ccc21` [Example 85, {4-[4-(2,4-Difluorophenoxy)-1-methyl-1H-benzimidazol-5-yl]-7-oxo-1,7-dihydro-6H-pyrrolo[2,3-c]pyridin-6-yl}acetonitrile trifluoroacetate] are 6.00 to 7.00 and 5.00 to 6.00.
For the compound `CCOc1c(-c2cn(C)c(=O)c3[nH]ccc23)c(C)nc2cc(C)nn12` [Example 73, 4-(7-Ethoxy-2,5-dimethylpyrazolo[1,5-a]pyrimidin-6-yl)-6-methyl-1,6-dihydro-7H-pyrrolo[2,3-c]pyridin-7-one], the pIC50 on BRD4-BD2 was 6.00 to 7.00; on BRD4-BD1, 5.00 to 6.00.
On the same counts, the results for `Cn1cc(-c2ccc3c(c2Oc2ccccc2)NC(c2ccccc2)CO3)c2cc[nH]c2c1=O` (centres unmarked) [Example 110, 6-Methyl-4-(5-phenoxy-3-phenyl-3,4-dihydro-2H-1,4-benzoxazin-6-yl)-1,6-dihydro-7H-pyrrolo[2,3-c]pyridin-7-one] are greater than 7.00 and 6.00 to 7.00.

The record behind these values is patent US9918990B2, “Substituted pyrrolo[2,3-c]pyridines and pyrazolo[3,4-c]pyridines as BET protein inhibitors” (Incyte Corporation, priority 2013, dated 2018).
